Experimental data published in US20260139314A1, “COMPOSITION AND METHOD FOR PREDICTING SULFONYLUREA DEPENDENCY USING GIPR MARKER” (Seoul National University Hospital, priority 2022, published 2026).

What was measured:
[1] = test system: INS1 rat insulinoma cells; test: GIP-induced insulin secretion (ELISA); type: cell-based; details: GIPR inhibitor 100 nM, 24 h
Procedure: INS1 rat insulinoma cells were transfected with 80-nM siRNA for Gipr and negative control.
(c) ELISA: Insulin secretion induced by GIP treatment (50 nM for 1 hour) was attenuated by siGipr. • siGipr, siRNA for Gipr; siNS, siRNA for negative control; siRNA, small interfering RNA; NS, no significant difference
(§1) INS1 rat insulinoma cells were treated with a GIPR inhibitor (rat GIP(3-30), 100 nM, 24 h) and the inhibition of insulin secretion by GIP was confirmed. Insulin secretion was stimulated with low-dose SU (50 nM glimepiride for 30 minutes) and measured using an ELISA kit.
Experiments were conducted to suppress the expression of the rat Gipr gene, which shares the same gene sequence as human GIPR.

[2] = test system: INS1 rat insulinoma cells; test: Insulin secretion stimulated with low-dose SU (50 nM glimepiride, ELISA); type: cell-based; details: non-diabetic conditions; GIPR inhibitor 100 nM, 24 h; 50 nM glimepiride for 30 minutes
Procedure: INS1 rat insulinoma cells were transfected with siGipr and siNS (80 nM) and stimulated for insulin secretion with low-dose SU (50 nM glimepiride for 30 minutes). Insulin secretion was measured using an ELISA kit.
(a) Physiological condition (b) Diabetic condition simulated by pre-treating with 15-mM glucose and 150-μM palmitic acid for 24 hours (glucolipotoxicity).
as §1
Next, the SU response was examined based on Gipr suppression. […] However, under diabetic conditions—chronic exposure to high glucose and fatty acids (glucolipotoxicity)—Gipr suppression increased insulin secretion in response to low-dose SU (FIG. 4b).

## rat GIP(3-30)
[1]
  Inhibition of insulin secretion by GIP: confirmed
[2]
  Insulin secretion by SU: trend of enhanced insulin secretion
